Reference: patent publication US8545876B1, “Modified drugs for use in liposomal nanoparticles” (The University of British Columbia, priority 2008, dated 2013)
Where two headings read alike, the source gives them in different places.

How the values were obtained:
A431 tumors = assay: In vivo kinetics and anticancer activity of vincristine formulations; design: species or system SCID mice; details: 2 mg/kg i.v.
Procedure: FIG. 9. In vivo kinetics and anticancer activity of free vincristine (VCR) (2 mg/kg) and vincristine (2 mg/kg) encapsulated in 100 nm egg sphingomyelin/cholesterol LN injected i.v. in SCID mice bearing A431 tumors. (8A) Concentration profile of free VCR (□) and LN formulated VCR (●) in blood plasma over time. […] (8B) Release of free VCR (●) from LN formulations (% retention) over time. […] (8C) Tumor concentration ([…]) of VCR over time after administration of free VCR (□) and LN formulated VCR (●). […] (8D) Anticancer activity of free VCR (1) and LN formulated VCR (●) relative to saline control (▪). […] Nano-liposomal formulations increase the amount of drug reaching sites of tumor growth and prolongs the duration of exposure to therapeutically active levels of drug, resulting in increased antitumor activity.

[1] = Stability in mouse plasma; format: in vitro ADME; details: 24 hour incubation in mouse plasma, 37° C.
Procedure: (§1) The chemical stability of the docetaxel derivatives was determined in aqueous solutions at different pH values and temperatures, and in biological media (mouse plasma). Aliquots of the docetaxel derivatives in acetonitrile were mixed with buffered citrate/HEPES (10 mM/10 mM) solutions at pH 4.0 and 7.5, or in mouse plasma in 1 mL glass HPLC sample vials sealed with Teflon-lined caps (final volume 0.25 ml, final docetaxel derivative concentration 50 µg/ml). Drug stability was determined 1, 4 and 24 hrs after incubation at 37° C. by UPLC-UV. At the indicated time points, a 3-fold excess of methanol/0.1% TFA was added to the sample. Citrate/HEPES buffered samples were analyzed by UHPLC as described above. For plasma samples, proteins precipitated by the addition of methanol/0.1% TFA pelleted by centrifugation at 14,000×g and supernatants were analyzed for the drug derivatives. Heparanized mouse plasma was diluted to 50% with 100 mM sodium-phosphate buffer to keep the pH constant throughout the experiment.
(§2) To be suitable for formulation in LN, derivatives must be stable at pH 4 (the pH present inside the LN carrier). In addition, prodrug derivatives should readily form the active drug under physiological conditions (e.g., at pH 7.4 and/or in the presence of endogenous enzymes) once released from the LN. […] TD1-3 and TD7 were selected for loading into LN and testing of such LN for drug release in vitro.

[2] = Single dose tolerability (MTD) study; format: in vivo, SCID/Rag2-M mice; details: for MTD at 14 days: SCID/Rag2-M, mouse, in vivo, iv, single dose i.v.
Procedure: Tolerability studies were aimed at establishing the maximum tolerated dose (MTD) and the dose range for use in efficacy studies (efficacy studies were based on a single i.v. injection). […] The studies were based on administration of a single dose and relied on 3 mice/group and a dose escalation strategy based on three dose levels for the derivative and Taxotere and five dose levels for the LN formulations (DSPC/Chol 55:45 mol % at a prodrug/lipid weight ratio of 0.2 mg/mg). All formulations were injected i.v. via the lateral tail vein in a volume of 200 μl/20 g mouse.
Mice were monitored daily for signs of toxicity over a period of 14 days following drug administration. Tolerability was assessed by changes in body weight as well as behavioral parameters. […] Body weights of individual mice were measured every second day over the course of the study. If weight loss was not a good predictor of tolerability, the dose where no animals needed to be terminated due to toxicity was used.

[3] = Chemical (hydrolytic) stability in buffered aqueous solutions; format: physicochemical; details: 24 hour incubation in pH 7.4 buffer, 37° C.
[4] = as above; format: physicochemical
Procedure: as §1, §2

[5] = test system: ovarian cancer cell line ES-2; assay: In vitro cytotoxicity, Alamar Blue assay; format: cell-based; details: Homo sapiens; ES-2, 72-h drug exposure
Procedure: (§3) Anticancer activity was evaluated against a panel of 3 human cancer cell lines, including the ovarian cancer cell line ES-2, the prostate cancer cell line PC3 and the breast cancer cell line MDA435/LCC6 (BC Cancer Research Centre, Vancouver, BC) (Fields and Lancaster, Am. Biotechnol. Lab., 11:48-50 (1993); Nakayama et al., J. Immunol. Methods, 204:205-208 (1997)). Cytotoxicity was determined using the Alamar Blue assay after a 72-h drug exposure period. […] The plates were returned to the incubator for 4 h; sample fluorescence was determined at λex=530 nm and λem=590 nm. Viability was calculated according to: Cell viability (%)=(Fplus drug−Fbackground)/(Fminus drug−Fbackground)*100, where Fplus drug is the fluorescence reading in the presence of drug, Fminus drug the cell control in the absence of drug and Fbackground the background fluorescence (media alone).

[6] = test system: breast cancer cell line MDA435/LCC6; assay: In vitro cytotoxicity, Alamar Blue assay; format: cell-based; details: Homo sapiens; MDA-MB-435/LCC6, 72-h drug exposure
Procedure: as §3

[7] = test system: prostate cancer cell line PC3; assay: In vitro cytotoxicity, Alamar Blue assay; format: cell-based; details: Homo sapiens; PC-3, 72-h drug exposure
Procedure: as §3

[8] = mouse, in vivo, iv, 20 mg/kg
From the text: The pharmacokinetics (PK) of LN-encapsulated docetaxel derivatives were compared to the PK of Taxotere™, the commercial docetaxel formulation, and derivatives formulated in the same manner as Taxotere™. Taxotere™ and similarly formulated derivatives were formulated as described in the prescribing information for Taxotere™ (Sanofi-Aventis, U.S.) using ethanol/polysorbate 80/physiological saline solution to dissolve the drug. The docetaxel derivative was encapsulated in DSPC/chol, DPPC/Chol and DMPC/Chol LN (55:45 mol %) at a drug-to-lipid ratio of 0.2 wt/wt using the ammonium sulfate loading technique. The lipid components contained trace amounts (0.15 μCi/mg lipid) of the lipid marker [^3H]CHE, allowing monitoring of the elimination of both the prodrug and the LN carrier from circulation.
The PK and in vivo release studies were based on 4 time points (1, 4, 8 and 16 hrs) and 4 mice per time point. […] The methanolic solutions were centrifuged for 30 min at 15,000×g at 4° C. to pellet the proteins and the supernatant was analyzed for docetaxel and drug derivatives by UHPLC. For LN formulations, 25-50 μl of plasma was added to scintillation fluid (PicoFluor 40, Perkin Elmer) and analyzed for lipid levels ([^3H]-CHE radioactivity) by scintillation counting.

| Compound | concentration profile in blood plasma over time (A431 tumors) | Prodrug levels (% remaining), Plasma [1] [%] | MTD at 14 days ([2]; docetaxel equivalents, read-out: MTD) [mg/kg] | MTD at 14 days ([2]; mg/kg prodrug, read-out: MTD expressed as prodrug) [mg/kg] | Clin. Observations ([2]; docetaxel equivalent dose 20 mg/kg, 20 mg/kg) | Clin. Observations ([2]; docetaxel equivalent dose 20 mg/kg, listed as Derivative, 20 mg/kg) | DRD (drug-related death) ([2]; dose 16 mg/kg) | DRD (drug-related death) ([2]; dose 20 mg/kg) | Clin. Observations ([2]; dose 24 mg/kg) | DRD (drug-related death) ([2]; dose 24 mg/kg) | Prodrug levels (% remaining), pH 7.4 [3] [%] | Prodrug levels (% remaining), pH 4 ([4]; 24 hour incubation in pH 4 buffer, 37° C.) [%] | half-life at 50 g/ml ([4]; citrate/HEPES (10 mM/10 mM) buffered aqueous solution, pH 4, read-out: hydrolysis half-life (converted)) [days] | IC50 [5] [nM] | IC50 [6] [nM] | IC50 [7] [nM] | time by which plasma concentrations were below detectable levels ([8]; Swiss Webster) [h] | plasma circulation half-lives [8] | pKa (physchem) |
| --- | --- | --- | --- | --- | --- | --- | --- | --- | --- | --- | --- | --- | --- | --- | --- | --- | --- | --- | --- |
| CC[C@]1(O)C[C@H]2CN(CCc3c([nH]c4ccccc34)[C@@](C(=O)OC)(c3cc4c(cc3OC)N(C=O)[C@H]3[C@@](O)(C(=O)OC)[C@H](OC(C)=O)[C@]5(CC)C=CCN6CC[C@]43[C@@H]65)C2)C1 [free VCR, vincristine] | rapidly removed from circulation | – | – | – | – | – | – | – | – | – | – | – | – | – | – | – | – | – | – |
| CC(=O)O[C@@]12CO[C@@H]1C[C@H](O)[C@@]1(C)C(=O)[C@H](O)C3=C(C)[C@@H](OC(=O)[C@H](OC(=O)CCCN4CCN(C)CC4)[C@@H](NC(=O)OC(C)(C)C)c4ccccc4)C[C@@](O)([C@@H](OC(=O)c4ccccc4)C12)C3(C)C (stereo partly shown) [TD1, 2′-O-(N-methyl-piperazinylbutanoic acid ester) derivative of docetaxel] | – | 12 | 16 | 20 | acute toxicity (lethality) | Acute toxicity | 0/3 | 1/1 | Acute toxicity | 3/3 | 23 | 94 | ~49 | 0.1 | < 0.1 | 0.5 | ≤ 2 | minutes | 7.7 |
